Patent US10829438B2, “Neprilysin inhibitors” (THERAVANCE BIOPHARMA R&D IP, LLC, priority 2012, dated 2020)

molecular target: human NEP (Homo sapiens (Human), UniProt P08473); assay: In vitro enzyme inhibition assay at human NEP (fluorogenic peptide substrate); format: biochemical; conditions: not given
Description: In Vitro Assays for the Quantitation of Inhibitor Potencies (IC50) at Human and Rat NEP, and Human ACE
The inhibitory activities of compounds at human and rat neprilysin (EC 3.4.24.11; NEP) and human angiotensin converting enzyme (ACE) were determined using in vitro assays as described below.
Recombinant human NEP and recombinant human ACE were obtained commercially (R&D Systems, Minneapolis, Minn., catalog numbers 1182-ZN and 929-ZN, respectively). The fluorogenic peptide substrate Mca-D-Arg-Arg-Leu-Dap-(Dnp)-OH (Medeiros et al. (1997) Braz. J. Med. Biol. Res. 30:1157-62; Anaspec, San Jose, Calif.) and Abz-Phe-Arg-Lys(Dnp)-Pro-OH (Araujo et al. (2000) Biochemistry 39:8519-8525; Bachem, Torrance, Calif.) were used in the NEP and ACE assays respectively.
The assays were performed in 384-well white opaque plates at 37° C. using the fluorogenic peptide substrates at a concentration of 10 μM in Assay Buffer (NEP: 50 mM HEPES, pH 7.5, 100 mM NaCl, 0.01% polyethylene glycol sorbitan monolaurate (Tween-20), 10 μM ZnSO4; ACE: 50 mM HEPES, pH 7.5, 100 mM NaCl, 0.01% Tween-20, 1 μM ZnSO4).
Test compounds were assayed over the range of concentrations from […] to 20 μM. Test compounds were added to the enzymes and incubated for 30 minute at 37° C. prior to initiating the reaction by the addition of substrate. Reactions were terminated after 20 minutes of incubation at 37° C. by the addition of glacial acetic acid to a final concentration of 3.6% (v/v).
Plates were read on a fluorometer with excitation and emission wavelengths set to 320 nm and 405 nm, respectively. Inhibition constants were obtained by nonlinear regression of the data using the equation (GraphPad Software, Inc., San Diego, Calif.): v=v0/[1+(I/K′)] where v is the reaction rate, v0 is the uninhibited reaction rate, I is the inhibitor concentration and K′ is the apparent inhibition constant.

human NEP, sequence (P08473 52-750): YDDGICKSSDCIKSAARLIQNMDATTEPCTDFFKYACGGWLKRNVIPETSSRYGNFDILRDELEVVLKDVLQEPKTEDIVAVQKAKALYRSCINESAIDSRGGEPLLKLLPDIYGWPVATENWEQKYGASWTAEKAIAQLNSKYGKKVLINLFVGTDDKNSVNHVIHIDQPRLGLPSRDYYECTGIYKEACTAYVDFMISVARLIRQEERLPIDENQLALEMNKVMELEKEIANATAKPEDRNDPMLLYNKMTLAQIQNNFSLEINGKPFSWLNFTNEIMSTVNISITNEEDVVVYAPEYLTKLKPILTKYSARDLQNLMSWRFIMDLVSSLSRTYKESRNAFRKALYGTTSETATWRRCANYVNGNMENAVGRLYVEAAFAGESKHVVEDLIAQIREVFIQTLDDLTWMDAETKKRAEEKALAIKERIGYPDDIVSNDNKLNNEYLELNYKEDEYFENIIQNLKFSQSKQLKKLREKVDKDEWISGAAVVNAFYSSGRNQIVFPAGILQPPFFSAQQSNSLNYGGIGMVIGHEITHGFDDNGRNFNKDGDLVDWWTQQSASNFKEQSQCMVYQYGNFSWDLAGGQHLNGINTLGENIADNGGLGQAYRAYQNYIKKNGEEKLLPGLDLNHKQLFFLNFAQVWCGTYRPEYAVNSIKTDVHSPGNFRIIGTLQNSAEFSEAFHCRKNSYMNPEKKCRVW

Compound	Ki [nM]
O=C(N[C@H](Cc1ccc(-c2cccc(Cl)c2)cc1)C[C@@H](O)C(=O)O)c1ccc2nnn(OCc3ccccc3)c2c1 [Example 1I, (2R,4R)-4-[(3-Benzyloxy-3H-benzotriazole-5-carbonyl)amino]-5-(3′-chlorobiphenyl-4-yl)-2-hydroxypentanoic Acid]	12.6 to 100

same assay, conditions: recombinant human NEP; 30 minute pre-incubation at 37° C.; fluorogenic substrate 10 μM

Compound	pKi value at human NEP
CC(C)[C@@H](N)C(=O)OCOn1nnc2ccc(C(=O)N[C@H](Cc3ccc(-c4cccc(Cl)c4)cc3)C[C@@H](O)C(=O)O)cc21 [Example 1L, (2R,4R)-4-{[3-((R)-2-Amino-3-methylbutyryloxymethoxy)-3H-benzotriazole-5-carbonyl]amino}-5-(3′-chlorobiphenyl-4-yl)-2-hydroxy-pentanoic Acid]	≥9.0
CC(=O)OCOn1nnc2ccc(C(=O)N[C@H](Cc3ccc(-c4cccc(Cl)c4)cc3)C[C@@H](O)C(=O)O)cc21 [Example 1G, (2R,4R)-4-[(3-Acetoxymethoxy-3H-benzotriazole-5-carbonyl)amino]-5-(3′-chlorobiphenyl-4-yl)-2-hydroxypentanoic Acid]	≥9.0
O=C(N[C@H](Cc1ccc(-c2cccc(Cl)c2)cc1)C[C@@H](O)C(=O)O)c1cc(-c2ccccc2F)no1 [Example 6A, (2R,4R)-5-(3′-Chlorobiphenyl-4-yl)-4-{[3-(2-fluorophenyl)isoxazole-5-carbonyl]amino}-2-hydroxypentanoic Acid]	≥9.0

same assay, conditions: recombinant human NEP; 30 minute pre-incubation at 37° C.; fluorogenic substrate 10 μM; read-out: pKi value at human NEP (converted)

Compound	Ki [nM]
Cn1nc(C(=O)N[C@H](Cc2ccc(-c3cccc(Cl)c3)cc2)C[C@@H](O)C(=O)O)cc1O [Example 2A, (2R,4R)-5-(3′-Chlorobiphenyl-4-yl)-2-hydroxy-4-[(5-hydroxy-1-methyl-1H-pyrazole-3-carbonyl)amino]pentanoic Acid]	≤ 1
CCCC(=O)OCOn1nnc2ccc(C(=O)N[C@H](Cc3ccc(-c4cccc(Cl)c4)cc3)C[C@@H](O)C(=O)O)cc21 [Example 1M, (2R,4R)-4-[(3-Butyryloxymethoxy-3H-benzotriazole-5-carbonyl)amino]-5-(3′-chlorobiphenyl-4-yl)-2-hydroxypentanoic Acid]	1.26 to 10
O=C(N[C@H](Cc1ccc(-c2cccc(Cl)c2)cc1)C[C@@H](O)C(=O)O)c1ccc2nnn(O)c2c1 [Example 1A, (2R,4R)-5-(3′-Chlorobiphenyl-4-yl)-2-hydroxy-4-[(3-hydroxy-3H-benzotriazole-5-carbonyl)amino]pentanoic Acid]	≤ 1

Other lines, results leading:

Ki [nM]	Compound
≤ 1	CC(=O)c1cc(C(=O)N[C@H](Cc2ccc(-c3ccccc3)cc2)C[C@@H](O)C(=O)O)[nH]n1 [formula X′, (2R,4R)-4-[(5-acetyl-2H-pyrazole-3-carbonyl)amino]-5-biphenyl-4-yl-2-hydroxypentanoic acid]
≤ 1	O=C(N[C@H](Cc1ccc(-c2cc(Cl)ccc2F)cc1)C[C@@H](O)C(=O)O)c1cn(O)nn1 [Example 8A, (2R,4R)-5-(5′-Chloro-2′-fluorobiphenyl-4-yl)-2-hydroxy-4-[(1-hydroxy-1H-[1,2,3]triazole-4-carbonyl)amino]pentanoic Acid]
≤ 1	COc1cc(C(=O)N[C@H](Cc2ccc(-c3cccc(Cl)c3)cc2)C[C@@H](O)C(=O)O)on1 [Example 7A, (2R,4R)-5-(3′-Chlorobiphenyl-4-yl)-2-hydroxy-4-[(3-methoxyisoxazole-5-carbonyl)amino]pentanoic Acid]
≤ 1	CC(=O)c1cc(C(=O)N[C@H](Cc2ccc(-c3cccc(Cl)c3)cc2)C[C@@H](O)C(=O)O)n[nH]1 [Example 5B, (2R,4R)-4-[(5-Acetyl-1H-pyrazole-3-carbonyl)amino]-5-(3′-chlorobiphenyl-4-l)-2-hydroxypentanoic Acid]
≤ 1	CC(=O)c1cc(C(=O)N[C@H](Cc2ccc(-c3cc(Cl)ccc3F)cc2)C[C@@H](O)C(=O)O)n[nH]1 [Example 4B, (2R,4R)-4-[(5-Acetyl-1H-pyrazole-3-carbonyl)amino]-5-(5′-chloro-2′-fluorobiphenyl-4-yl)-2-hydroxypentanoic Acid]
≤ 1	O=C(N[C@H](Cc1ccc(-c2cccc(Cl)c2)cc1)C[C@@H](O)C(=O)O)c1cc(O)n(-c2ccccn2)n1 [Example 3A, (2R,4R)-5-(3′-Chlorobiphenyl-4-yl)-2-hydroxy-4-[(5-hydroxy-1-pyridin-2-yl-1H-pyrazole-3-carbonyl)amino]pentanoic Acid]
≤ 1	O=C(N[C@H](Cc1ccc(-c2cccc(Cl)c2)cc1)C[C@@H](O)C(=O)O)c1nn(-c2ccccc2)c(=O)[nH]1 [Example 9A, (2R,4R)-5-(3′-Chlorobiphenyl-4-yl)-2-hydroxy-4-[(5-oxo-1-phenyl-4,5-dihydro-1H-[1,2,4]triazole-3-carbonyl)amino]pentanoic Acid]
